Test results as given in ChEMBL document CHEMBL4177767, “Discovery of N2-(4-Amino-cyclohexyl)-9-cyclopentyl- N6-(4-morpholin-4-ylmethyl-phenyl)- 9H-purine-2,6-diamine as a Potent FLT3 Kinase Inhibitor for Acute Myeloid Leukemia with FLT3 Mutations” (J Med Chem, 2018).
Activity calls are given as the source filed them. The rule behind the calls is not given here.

Experiments:
[1] = tested on: Receptor-type tyrosine-protein kinase FLT3 (Homo sapiens), P36888 [UNDEFINED MUTATION]; details: MV4-11, at 0.01 to 100 nM
Description: Inhibition of FLT3 ITD mutant in human MV4-11 cells assessed as decrease in STAT5 phosphorylation at Y694 at 0.01 to 100 nM after 1 hr by immunoblot analysis

[2] = molecular target: Calcium/calmodulin-dependent protein kinase type II subunit gamma (Homo sapiens) (UniProt Q13555); details: 10 nM
Description: Inhibition of full length human N-terminal GST-tagged CAMK2gamma expressed in baculovirus expression system at 10 nM relative to control

MV4-11 [3] = assay: Cell cycle arrest in human MV4-11 cells assessed as accumulation at G2/M phase at 1 nM after 24 hrs by propidium iodide staining-based flow cytometric method (reference value: 15.9%); type: functional
Rattus norvegicus [4] = assay: Toxicity in Wistar rat assessed as clinical signs of intoxication at 200 mg/kg, po measured over 15 days; type: organism-based; details: in vivo, 360 h
[5] = tested on: Receptor-type tyrosine-protein kinase FLT3 (Homo sapiens), P36888 [UNDEFINED MUTATION]; details: MV4-11, at 1 nM
Description: Inhibition of FLT3 ITD mutant autophosphorylation at Y842 in human MV4-11 cells at 1 nM after 1 hr by immunoblot analysis

[6] = molecular target: MAP kinase-interacting serine/threonine-protein kinase 2 (Homo sapiens) (UniProt Q9HBH9); details: 10 nM
Description: Inhibition of full length human N-terminal GST-tagged MNK2 expressed in baculovirus expression system at 10 nM relative to control

[7] = tested on: Receptor-type tyrosine-protein kinase FLT3 (Homo sapiens), P36888 [UNDEFINED MUTATION]; details: MV4-11, at 1 nM; remark: listed apart in the source
Description: Inhibition of FLT3 ITD mutant autophosphorylation at Y589/591 in human MV4-11 cells at 1 nM after 1 hr by immunoblot analysis

MV4-11 [8] = assay: Cell cycle arrest in human MV4-11 cells assessed as accumulation at sub-G1 phase at 1 nM after 24 hrs by propidium iodide staining-based flow cytometric method (reference value: 9.2%); type: functional
Rattus norvegicus [9] = assay: Toxicity in Wistar rat assessed as mortality at 100 mg/kg, iv measured over 15 days; type: organism-based; details: in vivo, 360 h
[10] = molecular target: Receptor-type tyrosine-protein kinase FLT3 (Homo sapiens, UniProt P36888, D835Y); assay: biochemical; type: cell-based, Sf9
Description: Inhibition of N-terminal GST/His6-fused recombinant human FLT3 (R571 to S993 residues) D835Y mutant expressed in Sf9 insect cells using poly (Ala,Glu,Lys,Tyr) 6:2:5:1 hydrobromide as substrate in presence of [gamma-33P]ATP

[11] = tested on: Receptor-type tyrosine-protein kinase FLT3 (Homo sapiens), P36888 [UNDEFINED MUTATION]; details: MV4-11, at 0.01 to 100 nM; remark: listed apart in the source
Description: Inhibition of FLT3 ITD mutant in human MV4-11 cells assessed as decrease in AKT phosphorylation at S473 at 0.01 to 100 nM after 1 hr by immunoblot analysis

MV4-11 [12] = assay: Cell cycle arrest in human MV4-11 cells assessed as accumulation at S phase at 0.1 nM after 24 hrs by propidium iodide staining-based flow cytometric method (reference value: 28.1%); type: functional
in vitro [13] = details: human, MRC5 cells
MV4-11 [14] = assay: Cell cycle arrest in human MV4-11 cells assessed as accumulation at G1 phase at 0.01 nM after 24 hrs by propidium iodide staining-based flow cytometric method (reference value: 56%); type: functional
in vitro [15] = details: human, HUVEC
MV4-11 [16] = assay: Cell cycle arrest in human MV4-11 cells assessed as accumulation at S phase at 100 nM after 24 hrs by propidium iodide staining-based flow cytometric method (reference value: 28.1%); type: functional
[17] = molecular target: Proto-oncogene tyrosine-protein kinase Src (Homo sapiens) (UniProt P12931); details: 10 nM
Description: Inhibition of full length human N-terminal GST-tagged SRC expressed in baculovirus expression system at 10 nM relative to control

[18] = molecular target: Tyrosine-protein kinase Yes (Homo sapiens) (UniProt P07947); details: 10 nM
Description: Inhibition of human full length N-terminal GST-tagged Yes expressed in baculovirus expression system at 10 nM relative to control

[19] = molecular target: High affinity nerve growth factor receptor (Homo sapiens) (UniProt P04629); details: 10 nM
Description: Inhibition of human N-terminal GST-tagged TRK cytoplasmic domain expressed in baculovirus expression system at 10 nM relative to control

MV4-11 [20] = assay: Cell cycle arrest in human MV4-11 cells assessed as accumulation at G2/M phase at 10 nM after 24 hrs by propidium iodide staining-based flow cytometric method (reference value: 15.9%); type: functional
HCC827 = assay: cells; details: Homo sapiens, HCC827, 72 h
MV4-11 [21] = assay: Cell cycle arrest in human MV4-11 cells assessed as accumulation at S phase at 1 nM after 24 hrs by propidium iodide staining-based flow cytometric method (reference value: 28.1%); type: functional
MV4-11 [22] = assay: Cell cycle arrest in human MV4-11 cells assessed as accumulation at G2/M phase at 0.01 nM after 24 hrs by propidium iodide staining-based flow cytometric method (reference value: 15.9%); type: functional
[23] = molecular target: Receptor-type tyrosine-protein kinase FLT3 (Homo sapiens, UniProt P36888, ITD); assay: biochemical; type: cell-based, Sf9
Description: Inhibition of N-terminal GST/His6-fused recombinant human FLT3 (R571 to S993 residues) ITD mutant expressed in Sf9 insect cells using poly (Ala,Glu,Lys,Tyr) 6:2:5:1 hydrobromide as substrate in presence of [gamma-33P]ATP

K562 = assay: cells; details: Homo sapiens, K562, 72 h
[24] = tested on: Receptor-type tyrosine-protein kinase FLT3 (Homo sapiens), P36888 [UNDEFINED MUTATION]; details: MV4-11, at 0.01 to 100 nM; remark: listed apart in the source
Description: Inhibition of FLT3 ITD mutant in human MV4-11 cells assessed as decrease in ERK1/2 phosphorylation at T202/Y204 at 0.01 to 100 nM after 1 hr by immunoblot analysis

[25] = tested on: Receptor-type tyrosine-protein kinase FLT3 (Homo sapiens), P36888 [UNDEFINED MUTATION]
Description: Inhibition of FLT3 ITD mutant (unknown origin) transfected in mouse BA/F3 cells assessed as growth inhibition after 72 hrs by calcein AM dye-based fluorescence assay

MV4-11 [26] = assay: Cell cycle arrest in human MV4-11 cells assessed as accumulation at sub-G1 phase at 0.01 nM after 24 hrs by propidium iodide staining-based flow cytometric method (reference value: 9.2%); type: functional
[27] = molecular target: Serine/threonine-protein kinase SIK2 (Homo sapiens) (UniProt Q9H0K1); details: 10 nM
Serine/threonine-protein kinase SIK2 (Homo sapiens), sequence (Q9H0K1 whole entry, looked up): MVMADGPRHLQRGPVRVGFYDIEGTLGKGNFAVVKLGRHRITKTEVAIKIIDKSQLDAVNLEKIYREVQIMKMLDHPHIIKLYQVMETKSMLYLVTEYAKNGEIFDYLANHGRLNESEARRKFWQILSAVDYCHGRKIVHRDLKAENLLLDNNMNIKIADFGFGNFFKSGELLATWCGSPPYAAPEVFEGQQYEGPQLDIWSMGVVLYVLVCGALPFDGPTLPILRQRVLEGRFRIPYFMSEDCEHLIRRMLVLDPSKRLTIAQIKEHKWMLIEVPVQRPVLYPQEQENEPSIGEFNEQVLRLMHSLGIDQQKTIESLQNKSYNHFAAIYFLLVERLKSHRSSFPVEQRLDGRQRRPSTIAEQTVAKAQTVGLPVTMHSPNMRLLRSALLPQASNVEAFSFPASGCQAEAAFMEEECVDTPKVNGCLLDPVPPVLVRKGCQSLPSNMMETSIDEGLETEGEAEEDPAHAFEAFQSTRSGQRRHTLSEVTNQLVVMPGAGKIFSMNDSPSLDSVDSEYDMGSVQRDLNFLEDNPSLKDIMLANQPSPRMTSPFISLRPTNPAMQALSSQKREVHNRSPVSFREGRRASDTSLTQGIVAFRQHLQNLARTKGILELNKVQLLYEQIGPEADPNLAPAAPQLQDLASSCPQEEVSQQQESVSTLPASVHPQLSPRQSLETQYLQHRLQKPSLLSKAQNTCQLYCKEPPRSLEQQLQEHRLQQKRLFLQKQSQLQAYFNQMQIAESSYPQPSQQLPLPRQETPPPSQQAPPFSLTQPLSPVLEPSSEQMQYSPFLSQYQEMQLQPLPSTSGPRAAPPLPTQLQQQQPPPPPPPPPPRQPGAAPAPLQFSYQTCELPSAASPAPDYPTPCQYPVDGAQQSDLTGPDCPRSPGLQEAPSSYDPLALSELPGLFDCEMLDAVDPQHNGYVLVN
Description: Inhibition of full length human N-terminal GST-tagged QIK expressed in baculovirus expression system at 10 nM relative to control

Tyrosine-protein kinase Yes (Homo sapiens), sequence (P07947 2-543 limits assumed): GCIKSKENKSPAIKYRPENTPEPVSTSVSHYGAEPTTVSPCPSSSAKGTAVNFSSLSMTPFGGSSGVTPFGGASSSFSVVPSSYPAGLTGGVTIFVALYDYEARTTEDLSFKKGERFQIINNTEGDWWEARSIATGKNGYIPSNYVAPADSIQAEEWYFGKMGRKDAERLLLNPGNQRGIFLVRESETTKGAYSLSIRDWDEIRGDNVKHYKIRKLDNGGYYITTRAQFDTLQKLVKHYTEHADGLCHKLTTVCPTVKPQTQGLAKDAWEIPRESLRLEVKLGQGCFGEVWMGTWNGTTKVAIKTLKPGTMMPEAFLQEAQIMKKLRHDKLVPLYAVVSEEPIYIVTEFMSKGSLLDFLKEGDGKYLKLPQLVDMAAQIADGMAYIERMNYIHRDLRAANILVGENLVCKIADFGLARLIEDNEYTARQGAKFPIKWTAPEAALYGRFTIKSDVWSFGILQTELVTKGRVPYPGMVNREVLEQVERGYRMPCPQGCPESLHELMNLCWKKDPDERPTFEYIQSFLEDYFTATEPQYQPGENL
Proto-oncogene tyrosine-protein kinase Src (Homo sapiens), sequence (P12931 2-536 limits assumed): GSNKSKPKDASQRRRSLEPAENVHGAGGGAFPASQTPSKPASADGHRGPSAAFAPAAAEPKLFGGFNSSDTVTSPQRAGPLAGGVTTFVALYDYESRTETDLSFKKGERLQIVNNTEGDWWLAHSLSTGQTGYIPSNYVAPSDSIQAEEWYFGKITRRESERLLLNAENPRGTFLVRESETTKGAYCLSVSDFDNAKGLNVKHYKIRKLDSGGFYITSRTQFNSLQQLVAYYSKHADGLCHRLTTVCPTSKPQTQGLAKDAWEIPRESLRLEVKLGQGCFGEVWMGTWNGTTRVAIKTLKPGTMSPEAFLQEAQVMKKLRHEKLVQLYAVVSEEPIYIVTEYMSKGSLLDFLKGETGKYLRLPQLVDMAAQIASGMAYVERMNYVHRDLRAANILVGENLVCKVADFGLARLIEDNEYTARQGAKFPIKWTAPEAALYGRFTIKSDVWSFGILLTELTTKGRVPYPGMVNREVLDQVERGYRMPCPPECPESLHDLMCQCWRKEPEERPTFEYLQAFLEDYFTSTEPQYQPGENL
Calcium/calmodulin-dependent protein kinase type II subunit gamma (Homo sapiens), sequence (Q13555 whole entry): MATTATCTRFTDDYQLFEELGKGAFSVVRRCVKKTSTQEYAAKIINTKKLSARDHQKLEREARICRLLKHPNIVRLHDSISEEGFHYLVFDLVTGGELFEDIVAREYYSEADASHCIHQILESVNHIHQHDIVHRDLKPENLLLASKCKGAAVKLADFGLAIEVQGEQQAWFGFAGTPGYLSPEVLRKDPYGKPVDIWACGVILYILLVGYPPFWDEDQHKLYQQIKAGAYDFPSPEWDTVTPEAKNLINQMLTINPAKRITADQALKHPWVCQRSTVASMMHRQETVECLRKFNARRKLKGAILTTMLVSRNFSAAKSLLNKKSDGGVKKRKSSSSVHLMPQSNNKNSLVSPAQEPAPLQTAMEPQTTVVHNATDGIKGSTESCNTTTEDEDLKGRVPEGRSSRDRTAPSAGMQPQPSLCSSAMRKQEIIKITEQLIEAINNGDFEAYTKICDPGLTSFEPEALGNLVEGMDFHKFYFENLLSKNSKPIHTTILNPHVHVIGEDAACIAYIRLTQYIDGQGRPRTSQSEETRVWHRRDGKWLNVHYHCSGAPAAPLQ
High affinity nerve growth factor receptor (Homo sapiens), sequence (P04629 33-796 limits assumed): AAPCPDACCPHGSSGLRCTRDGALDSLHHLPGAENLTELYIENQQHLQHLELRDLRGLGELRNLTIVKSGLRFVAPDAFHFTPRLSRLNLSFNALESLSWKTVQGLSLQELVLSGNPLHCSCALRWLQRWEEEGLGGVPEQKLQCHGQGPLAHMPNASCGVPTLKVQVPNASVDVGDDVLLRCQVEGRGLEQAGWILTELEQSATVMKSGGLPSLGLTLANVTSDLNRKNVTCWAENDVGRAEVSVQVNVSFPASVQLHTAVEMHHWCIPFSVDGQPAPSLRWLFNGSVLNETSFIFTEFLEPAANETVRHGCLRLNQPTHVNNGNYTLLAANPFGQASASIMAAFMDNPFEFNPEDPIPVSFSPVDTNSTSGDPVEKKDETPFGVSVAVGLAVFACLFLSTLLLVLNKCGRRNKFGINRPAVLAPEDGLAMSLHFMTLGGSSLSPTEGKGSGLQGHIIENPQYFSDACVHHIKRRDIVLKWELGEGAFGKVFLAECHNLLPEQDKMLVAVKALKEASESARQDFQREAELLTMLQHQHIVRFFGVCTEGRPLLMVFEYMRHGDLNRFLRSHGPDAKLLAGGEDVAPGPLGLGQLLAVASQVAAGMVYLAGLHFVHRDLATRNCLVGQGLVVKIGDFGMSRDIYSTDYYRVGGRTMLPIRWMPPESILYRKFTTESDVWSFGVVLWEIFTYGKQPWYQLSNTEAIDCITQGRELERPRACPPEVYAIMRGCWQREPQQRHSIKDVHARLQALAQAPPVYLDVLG
MAP kinase-interacting serine/threonine-protein kinase 2 (Homo sapiens), sequence (Q9HBH9 whole entry, looked up): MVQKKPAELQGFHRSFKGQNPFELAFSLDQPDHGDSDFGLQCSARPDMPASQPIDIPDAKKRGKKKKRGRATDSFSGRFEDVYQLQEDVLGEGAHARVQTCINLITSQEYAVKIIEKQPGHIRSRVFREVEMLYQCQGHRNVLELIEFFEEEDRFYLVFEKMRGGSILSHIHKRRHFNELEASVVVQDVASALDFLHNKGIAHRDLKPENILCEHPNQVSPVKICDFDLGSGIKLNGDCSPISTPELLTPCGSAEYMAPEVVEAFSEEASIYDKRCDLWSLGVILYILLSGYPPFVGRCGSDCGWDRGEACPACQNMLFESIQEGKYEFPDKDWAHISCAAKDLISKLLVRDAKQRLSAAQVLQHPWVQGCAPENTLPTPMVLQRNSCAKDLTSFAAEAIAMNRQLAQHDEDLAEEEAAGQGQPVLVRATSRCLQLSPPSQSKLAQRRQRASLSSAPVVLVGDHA

With `N[C@H]1CC[C@H](Nc2nc(Nc3ccc(CN4CCOCC4)cc3)c3ncn(C4CCCC4)c3n2)CC1` the inhibition [1] was “Active”, the inhibition [2] was greater than 90% and the Activity (MV4-11 [3]) was 1.1%. For the same compound, the Activity (Rattus norvegicus [4]) was “Non-Toxic”, the inhibition [5] was “Active” and the inhibition [6] was greater than 90%. The inhibition [7] was “Active”, the Activity (MV4-11 [8]) was 20.4% and the Activity (Rattus norvegicus [9]) was “Non-Toxic”. For the same compound, the IC50 [10] was 8 nM, the inhibition [11] was “Active” and the Activity (MV4-11 [12]) was 28%. For the same compound, the GI50 at 72 h (in vitro [13]) was 20600 nM, the Activity (MV4-11 [14]) was 5.6% and the GI50 at 72 h (in vitro [15]) was 5870 nM. It also gave an Activity (MV4-11 [16]) of 3.8%, an inhibition [17] greater than 90% and an inhibition [18] greater than 90%. The inhibition [19] was greater than 90%, the Activity (MV4-11 [20]) was 0.8% and the GI50 (HCC827) was 327 nM. The Activity (MV4-11 [21]) was 8.6%, the Activity (MV4-11 [22]) was 14.5% and the IC50 [23] was 3 nM. The GI50 (K562) was 380 nM, the inhibition [24] was “Active” and the GI50 [25] was 34 nM. For the same compound, the Activity (MV4-11 [26]) was 9.9% and the inhibition [27] was greater than 90%.
